# Assays:
# GM3 synthase [1] = assay: GM3 synthase activity in RMC transfected with GM3 synthase siRNA; assay type: cell-based, rat
# Description: (§1) At the end of the treatment, the cells were washed with PBS, incubated for 20 minutes at 4° C. in 50 μl of lysis buffer (20 mM sodium cacodylate, pH 6.6 (Sigma), 0.2% of Triton X-100, 1 mM EDTA, 10 μl/ml of protease inhibitors, Calbiochem, La Jolla, Calif., United States) and then collected by scraping. Four dishes of BRP (about 2-3×10^6 cells) and three dishes of RMC (about 3-6×10^6 cells) were pooled. The cell lysates were centrifuged at 10,000 g for 5 minutes and the proteins in the supernatants were used to measure the GM3 synthase activity. The glomerular residues were mechanically homogenised with a syringe in 25 mM Hepes containing 1 mM EDTA and 10 μl/ml of protease inhibitors. […]
# To block the GM3 synthase activity, RMC were cultivated in 6-well culture plates up to 30% confluence and then transfected with an interfering RNA (siRNA) specific for GM3 synthase, which was designed against a rat cDNA sequence (Ambion, Huntingdon, UK) using an Oligofectamine reagent (Invitrogen Corporation). […] After 72 h of transfection, the GM3 synthase activity was measured on homogenates of transfected cells. The proliferation was then evaluated on the cells transfected with the siRNA. […] The cells were then washed twice with PBS and lysed in a Ripa lysis buffer and the proteins were measured in order to evaluate the cell proliferation.
# RMC = assay: Proliferation of siRNA-transfected RMC treated with AGE; assay type: cell-based, rat; settings: 400 nM siRNA, then 3 μM AGE 3 days, total proteins
# Description: To block the GM3 synthase activity, RMC were cultivated in 6-well culture plates up to 30% confluence and then transfected with an interfering RNA (siRNA) specific for GM3 synthase, which was designed against a rat cDNA sequence (Ambion, Huntingdon, UK) using an Oligofectamine reagent (Invitrogen Corporation). The GM3 synthase antisense sequence used was GGGUUAUUCUGAACAUGUUtt (SEQ ID No: 5). In preliminary experiments, a dose-response study was carried out by transfecting the cells with increasing concentrations of siRNA (0-800 nM). After 72 h of transfection, the GM3 synthase activity was measured on homogenates of transfected cells. The proliferation was then evaluated on the cells transfected with the siRNA. For this purpose, 24 hours after transfection with 400 nM siRNA, the cells were treated with 3 μM BSA control or AGE (3 days). The cells were then washed twice with PBS and lysed in a Ripa lysis buffer and the proteins were measured in order to evaluate the cell proliferation.
# pericytes (BRP) [2] = assay: Treatment with exogenous gangliosides, proliferation of pericytes; assay type: cell-based, bovine; settings: 50 μM, 7 days, total proteins
# Description: (§2) To evaluate the effect of exogenous gangliosides on the proliferation of BRP and RMC, the cells were cultivated in 96-well plates. Exogenous glycolipids GM3, GM2, GM1 and GD1a, glucosylceramide and lactosylceramide (Matreya) were added to the complete culture medium in a final concentration of 50 μM in the form of complexes with BSA in a 1:1 ratio in DMEM/10 mM Hepes, pH 7.4. At the end of the treatment, the cells were washed twice with PBS and lysed for 30 minutes at 37° C. in 50 μl of a Ripa lysis buffer (PBS 10 mM, NP40 1% (Pierce, Perbio Science, Brebières, France), sodium deoxycholate 0.5%, SDS 0.1%, protease inhibitors 10 μl/ml). As the number of cells in our experiments was correlated with the total protein concentrations (cf. FIG. 1), the total proteins were measured using the BCA protein test (Pierce) in order to evaluate the cell proliferation.
# mesangial cells (RMC) = assay: Treatment with exogenous gangliosides, proliferation of mesangial cells; assay type: cell-based, rat; settings: 50 μM, 4 days, total proteins
# Description: as §2
# pericytes (BRP) [3] = assay: AGE effect on proliferation of pericytes (cell count, total proteins); assay type: cell-based, bovine; settings: 3 μM AGE, 7 days
# Text: Bovine retinal pericytes (BRP) were isolated from bovine retinal micro-vessels as described previously (Lecomte et al., 1996). Briefly, the retinas were obtained by dissection under sterile conditions from enucleated bovine eyes obtained from a local abattoir. After the contaminating pigmented epithelial cells of the retina had been removed, the retinas (2 per culture dish) were sliced into small pieces and homogenised in a Dounce homogeniser in a Hanks balanced saline solution (Ca^2+/Mg^2+-free oxygenated HBSS supplemented with Hepes 10 mM, pH 7.4, antibiotics 1%, bovine serum albumin (BSA, Sigma, Saint-Quentin Fallavier, France) 0.5%). […] The BRP cultures were 100% pure, as characterised by their polygonal irregular morphology with pseudopodia and their growth into non-apposed cells, and as evaluated by positive labelling for both α1-actin and a specific glycolipid antigen (3G5 antibody) and by negative labelling for the von Willebrand factor expressed in the endothelial cells (Lecomte et al., 1996). […]
# (§3) At the end of the treatment, the cells were harvested with trypsin and the cell residues were washed twice with a phosphate buffered saline solution (iced PBS) (Sigma). For each sample, one aliquot of cells was counted using a haemocytometer in order to determine the number of cells. […]
# [4] = tested on: renal mesangial cells (RMC); assay: AGE effect on proliferation of renal mesangial cells (cell count, total proteins); assay type: cell-based, rat; settings: 3 μM AGE, 4 days
# Text: Rat renal mesangial cells (RMC) were obtained from purified glomeruli of young male Wistar rats (Charles River, l'Arbresle, France). Briefly, cortex fragments were isolated from rat kidneys freshly removed under sterile conditions. Small pieces were mechanically forced through a 230 μm mesh with HBSS buffer. The glomeruli, passed through this mesh, were then forced through a 73.7 μm mesh. Finally, they were placed on a 70 μm mesh and placed in 6 cm dishes covered with fibronectin (4 dishes for 2 renal glomeruli) in DMEM supplemented with 20% of foetal bovine serum, 1% of glutamine and 1% of penicillin/streptomycin. After the attachment period, the excrescence of RMC from glomeruli occurred after three weeks and the cells were then cultivated to the fifth passage in order to remove the residual epithelial and endothelial cells. The RMC are characterised by morphological criteria (star shape, wick shape when they are confluent) and by positive labelling with vimentin, smooth muscle α-actin and Thy-1 antigen. […]
# as §3
# [5] = tested on: gangliosides in pericytes (BRP); assay: Ganglioside profile in pericytes treated with AGE (HPTLC); assay type: cell-based, bovine; settings: 3 μM AGE
# Description: (§4) The AGE and the BSA control (final concentration of 3 μM) were added to the culture medium 24 hours after inoculation. Each cell type was treated for one passage (about 7 days for the BRP and 4 days for the RMC). The culture medium was replaced with a fresh medium every two days.
# (§5) For metabolic labelling of the gangliosides, 0.2 μCi/ml or 1 μCi/ml of [^14C(U)]-D-galactose (329.5 mCi/mmol) (PerkinElmer Life Sciences, Boston, Mass.) was added to the culture medium overnight for the labelling experiments with a high specific activity (GM2 and GM1 measuring experiment). The cells (5-8×10^5 pericytes or 12-20×10^5 mesangial cells) were then harvested by trypsinisation and washed three times in PBS. The gangliosides were extracted from the cell residues by the method described by Bouchon et al. (Bouchon et al., 1990), modified by Natalizio et al. (Natalizio et al., 2002). Briefly, the cell residues were dispersed in 2 ml of chloroform (C)/methanol (M) (1:1, v/v), mixed vigorously and extracted overnight at 4° C. After centrifugation, the residues were extracted twice with 2 ml of the same solvent. The pooled extracts of total lipids were dried by evaporation and separated with the aid of a 1 mM C/M/PBS solution (10:10:7, v/v/v). The upper phases, containing the gangliosides, were then desalted on a C18 silica gel column (Waters Corporation, Milford, Mass.) and analysed by HPTLC (Merck, Darnstadt, Germany). The plates were developed in 0.2% C/M/CaCl2 (55:45:10, v/v/v). The gangliosides were visualised by autoradiography using a phosphorus screen and a Storm 820 (Molecular Dynamics, Amersham Pharmacia Biotech, Piscataway, United States) and by labelling with resorcinol (specific stain for gangliosides: resorcinol 0.3% (Sigma), CuSO4 0.03%, HCl 30%) using an Image Master VDS-CL (Amersham Pharmacia Biotech). Quantification was performed using an Image Quant (Molecular Dynamics). As GT1b was absent from the ganglioside profiles of both the BRP and the RMC, it was added to the samples as an internal standard prior to lipid extraction.
# [6] = tested on: gangliosides in mesangial cells (RMC); assay: Ganglioside profile in mesangial cells treated with AGE (HPTLC); assay type: cell-based, rat; settings: 3 μM AGE, resorcinol staining
# Description: as §4, §5
# GM3 synthase [7] = assay: GM3 synthase activity in homogenates of pericytes treated with AGE; assay type: cell-based, bovine; settings: 3 μM AGE, 7 days, vs BSA control
# Description: as §4
# as §1, with “inhibitors. The homogenates were then centrifuged at 1000 g for 2 minutes and the postnuclear supernatant was used to measure the GM3 synthase activity. Equivalent amounts of proteins for each sample (about 500 μg for the cells and 100 μg for the glomeruli) were used to perform the test.” for “inhibitors.”
# GM3 synthase [8] = assay: GM3 synthase activity in homogenates of mesangial cells treated with AGE; assay type: cell-based, rat; settings: 3 μM AGE, 4 days, vs BSA control
# Description: as §4
# as §1, with “inhibitors. The homogenates were then centrifuged at 1000 g for 2 minutes and the postnuclear supernatant was used to measure the GM3 synthase activity. Equivalent amounts of proteins for each sample (about 500 μg for the cells and 100 μg for the glomeruli) were used to perform the test.” for “inhibitors.”
# [9] = pericytes, resorcinol staining, vs BSA control
substance,measurement,setting,value
GGGUUAUUCUGAACAUGUUtt (guide GGGUUAUUCUGAACAUGUUTT; chemistry not given here) [GM3 synthase siRNA],inhibition of GM3 synthase activity,GM3 synthase [1]; RMC transfected with siRNA,50%
same,inhibition of GM3 synthase activity (in words),"GM3 synthase [1]; RMC, preliminary experiments, siRNA 0-800 nM, 72 h",effectively inhibited
same,effects of AGE on the proliferation of the RMC,RMC,partially inhibited
lactosylceramide,effect on proliferation of pericytes (in words),pericytes (BRP) [2],no effect
same,effect on proliferation of mesangial cells (in words),mesangial cells (RMC),no effect
AGE: prepared by incubating bovine serum albumin with 100 mM methylglyoxal at 37° C. for 50 hours,reduction of the number of pericytes,"pericytes (BRP) [3]; cell count, vs BSA control",33%
same,total proteins,pericytes (BRP) [3]; pericytes,decreased in correlation with the number of cells
same,reduction of the number of mesangial cells,"[4]; cell count, vs BSA control",40%
same,total proteins,[4]; mesangial cells,decreased in correlation with the number of cells
same,increase in GM2,"[5]; BRP, [14C]-D-galactose labelling, autoradiography",55%
same,increase in series a ganglioside GM1,[5]; [9],about 40%
same,increase in series a ganglioside GM3,[5]; [9],about 40%
same,reduction of series b ganglioside GD3,[5]; [9],24%
same,GD1a levels,[6],not affected
same,increase in GM3,[6]; vs BSA control,33%
same,reduction of GD3,[6]; vs BSA control,30%
same,increase of GM3 synthase activity (factor),GM3 synthase [7],about 1.8
same,increase of GM3 synthase activity (factor),GM3 synthase [8],about 1.5
"α-N-acetyl-neuraminyl-2,3-β-D-galactosyl-1,4-β-D-glucosylceramide [GM3]",effect on proliferation of pericytes (in words),pericytes (BRP) [2],weakly inhibited
same,effect on proliferation of mesangial cells (in words),mesangial cells (RMC),no significant effect
glucosylceramide,effect on proliferation of pericytes (in words),pericytes (BRP) [2],no effect
same,effect on proliferation of mesangial cells (in words),mesangial cells (RMC),no effect

# — patent US20070224200A1, “Gm3 Synthase as a Therapeutic Target in Microvascular Complications of Diabetes” (priority 2004, published 2007)
